Experimental data published in patent publication US10039771B2, “Method for cancer cell reprogramming” (STC.UNM, priority 2013, dated 2018).
One block for each molecule: values may come before it.

Columns and labels:
U937 cells [1] = experiment: F-cAMP (Alexa 488-cAMP) efflux assay / high throughput flow cytometry screen; assay type: cell-based, human; conditions: for Hit status in preliminary screen for cAMP efflux inhibitors: Prestwick/SPECTRUM library screen, U937 cells
Protocol: U937 cell were loaded with the analog by a method relying on osmotic lysis of pinocytic vesicles (15). After incubation, cell fluorescence decreased to a level that was close to cell autofluorescence.
Briefly, cells were concentrated and washed, with resuspension NF-RPMI (cRPMI without FBS). Cells were then resuspended in an NF-RPMI hypertonic solution containing poly(ethylene glycol) 1,000 (PEG), sucrose, and Alexa Fluor® 488 8-(6-aminohexyl) aminoadenosine 3′,5′-cyclicmonophosphate, bis(triethylammonium) salt, hereafter referred to as F-cAMP, to give a final concentration of 4.76 mM F-cAMP. Cells were incubated for 10 min, room temperature, then centrifuged and resuspended in hypotonic solution (60% cRPMI, 40% sterile water) for 2 min at room temperature to complete the F-cAMP loading. The cells were then washed and resuspended in cRPMI at a final concentration of 4×10^5 cells/mL, and allowed to equilibrate for 2 hours in a 37° C., 5% CO2/95% air incubator.
The remainder of the cells was incubated (37° C., 5% CO2/95% air) in the presence of dimethyl sulfoxide (DMSO) vehicle or compounds overnight. Flow cytometry was used to measure samples, and unstained U937 cells were used to create a gate to mark viable cells. Control and experimental samples were excited with a 488 nm laser and analyzed for FL-1 median fluorescence intensity (MFI) within that gate.
For the high throughput screening assay (HTS), U937 cells were loaded with F-cAMP as described above. Solutions were added to 384-well plates (Greiner 784201) with a Biomek FX Multichannel system (Beckman-Coulter) and/or MicroFlo as follows: 1) 5 μL cRPMI; 2) 100 nL compounds from the Prestwick Chemical Library or Spectrum 2000 Library in DMSO were delivered by pintool (V&P Scientific, San Diego, Calif.), final DMSO concentration=1%; 3) 5 μL F-cAMP cells. Negative control wells contained stained cells with 1% DMSO only. For positive controls, F-cAMP cells were treated with 200 μM MK-571. The final concentration for all conditions was 2000 cells/well. The plates were sealed with foil, and incubated (37° C., 5% CO2/95% air) inverted overnight.
After incubation, the 384-well sample plates were analyzed by CyAn flow cytometers (Beckman-Coulter) configured with HyperCyt high throughput auto-sampler systems (IntelliCyt Albuquerque, N. Mex.). The samples were interrogated with 488 nm lasers to assess FL-1 MCI levels.
Data from the HTS were analyzed with HyperView software (IntelliCyt, Albuquerque, N. Mex.) and gated on untreated, live cell populations and then time-gated to separate data per well. FL-1 MCI values for the samples were analyzed per plate. Those samples which reported MCI values≥2 standard deviations above the plate mean negative control values were considered “hit” compounds.
To validate the identified samples and decrease the number of potential false-positive compounds, the hit compounds were assayed in a high-throughput dose response assay. This assay set up 384-well plates with the same volumes of F-cAMP cells, cRPMI, and DMSO/compounds as in the HTS, with the plate formats containing 10-well dose responses for each hit compound, at final concentrations ranging 30 μM to 4 nM. These plates were also foil-sealed, and incubated inverted overnight. Post-incubation, the dose response plates were analyzed by high throughput flow cytometry, as above. […]

697 cells = experiment: Cross-cell line test for cAMP efflux (F-cAMP); assay type: cell-based, human; conditions: 697, 37° C., 100 μM MK-571, overnight
Protocol: (§1) To study the differences in cAMP-removal, cells were loaded with a fluorescent cAMP-analog, and incubated under different conditions: low temperature (4° C.) used to estimate the passive probe “leakage”, and physiological temperature (37° C.) used to assess active removal of the probe.
(§2) Briefly, 15 million cells were loaded with F-cAMP via the osmotic process detailed above. Small volumes of cells were analyzed by flow cytometry post-staining to determine baseline fluorescence values based on MFI. […] The remaining cells were split in half, and one group was treated with a final concentration of 100 μM MK-571, while the other received DMSO-only at an equal volume. These two groups of cells were incubated ˜24 hr according to standard tissue culture conditions (37° C., 5% CO2/95% air). After incubation, cells were analyzed with flow cytometry for FL-1 MFI.
(§3) Because cells loaded with F-cAMP were washed, the resulting concentration gradient could have caused a “passive leak” of the probe. All 6 cell lines appeared to efflux F-cAMP, although to different extents (FIG. 7A a). After incubation at 4° C., the cells lost 20-60% of their fluorescence from the initial F-cAMP loading.

MHH Call 3 cells = experiment: Cross-cell line test for cAMP efflux (F-cAMP); assay type: cell-based, human; conditions: MHH Call 3, 37° C., 100 μM MK-571, overnight
Protocol: as §1, §2, §3

Nalm 6 cells = experiment: Cross-cell line test for cAMP efflux (F-cAMP); assay type: cell-based, human; conditions: Nalm 6, 37° C., 100 μM MK-571, overnight
Protocol: as §1, §2, §3

RS4; 11 cells = experiment: Cross-cell line test for cAMP efflux (F-cAMP); assay type: cell-based, human; conditions: 11, 37° C., 100 μM MK-571, overnight
Protocol: as §1, §2, §3

Reh cells = experiment: Cross-cell line test for cAMP efflux (F-cAMP); assay type: cell-based, human; conditions: 37° C., 100 μM MK-571, overnight
Protocol: as §1, §2, §3

Sup B15 cells = experiment: Cross-cell line test for cAMP efflux (F-cAMP); assay type: cell-based, human; conditions: Sup B15, 37° C., 100 μM MK-571, overnight
Protocol: as §1, §2, §3

U937 cells [2] = experiment: Annexin V-PE/7-AAD apoptosis assay; assay type: cell-based; conditions: Homo sapiens
Text: To detect apoptosis we used an Annexin V and 7-amino-actinomycin D (7-AAD) based assay. Annexin V is a protein that has high binding affinity to phosphatidylserine, which is translocated from the inner to the outer leaflet of the membrane during early apoptosis. 7-AAD is a DNA dye that stains cells only when the cell membranes are permeable. Thus, double positive events are considered to represent end stage apoptosis and dead cells. […] The results obtained using this assay correlated well with the results of other assays:
Six-well plates were set up with dose responses for each of the 11 hit compounds (artemisinin, artemether, artesunate, dihydroartemisinin, parthenolide, patulin, clioquinol, cryptotanshinone, pyrithione zinc, harmalol, quinalizarin). Each well contained 2.5×10^6 U937 cells in 5 mL cRPMI. To each well, 15 μL of compound in DMSO (or vehicle control) was fTadded, giving final concentrations of 0, 300 nM, and 1, 3, 10, and 30 […] were incubated overnight, at 37° C., 5% CO2/95% air. The compound effects on apoptosis were assessed with an Annexin V-PE/7-amino-actinomycin D (7-AAD) kit (BD Pharmingen™ cat. no. 559763), according to manufacturer protocol, and data were collected with a BD Accuri™ C6 flow cytometer. A gate was set for live cells, and 10,000 gated events were collected per sample. FL-2 versus FL-3 channel dot plots were divided into quadrants and were used to determine percentages of gated cells that were Annexin V^−/7-AAD^− (live, healthy cells), Annexin V^+/7-AAD^− (early apoptosis), or Annexin V^+/7-AAD^+ (late, full apoptosis).
[…] The samples were plotted as Annexin V vs 7-AAD and quadrant-gated. Annexin V^+, 7-AAD^− events are indicative of early apoptosis, in which phosphatidyl serine has flipped to the outer leaflet of the cell membrane. Annexin V^+, 7-AAD^+ (double positive) events indicate cell and nuclear membrane permeabilization, marking late apoptotic events or complete cell death.

[3] = test system: healthy human peripheral blood mononuclear cells (PBMCs); experiment: Cell TiterGlo luminescent cell viability assay in PBMCs
U937 cells [4] = experiment: Propidium iodide cell cycle assay; conditions: 24 hour incubation, dose response
U937 cells [5] = experiment: CellTrace CFSE cell proliferation assay; conditions: 3 μM, 48 hr
[6] = U-937, U937 cells, overnight incubation, dose responses 300 nM to 30 μM, read-out: Calculated EC50 values from Annexin V, 7-AAD double positive events
[7] = U-937, read-out: Calculated EC50 values from Annexin V, 7-AAD double positive events

EC50 (U937 cells [1]; Homo sapiens, U-937, read-out: EC50 for inhibition of cAMP efflux calculated in assay development, U937 cells loaded with F-cAMP, overnight): 31 µM
Structure (SMILES): CN(C)C(=O)CCSC(SCCC(=O)O)c1cccc(/C=C/c2ccc3ccc(Cl)cc3n2)c1 (stereo not drawn) [MK-571]
Effect on cAMP efflux (U937 cells [1]; U937 cells loaded with F-cAMP, overnight): down-modulated cAMP efflux in a dose-dependent manner
F-cAMP probe removed in the presence of MK-571 (697 cells): 60-70%
F-cAMP efflux in the presence of MK-571 (MHH Call 3 cells): blocked completely
F-cAMP probe removed in the presence of MK-571 (Nalm 6 cells): 60-70%
F-cAMP probe removed in the presence of MK-571 (RS4; 11 cells): 30-40%
F-cAMP probe removed in the presence of MK-571 (Reh cells): 30-40%
F-cAMP efflux in the presence of MK-571 (Sup B15 cells): blocked completely

Structure (SMILES): CC1=C(CC(=O)O)c2cc(F)ccc2/C1=C\c1ccc([S+](C)[O-])cc1 (stereo not drawn) [sulindac]
Hit status in preliminary screen for cAMP efflux inhibitors (U937 cells [1]): did not come out as hits

EC50 (U937 cells [2]; [6]): 249 µM
Structure (SMILES): C[C@@H]1CC[C@H]2[C@@H](C)C(=O)O[C@@H]3O[C@@]4(C)CC[C@@H]1[C@]32OO4 [Artemisinin, artemisinin]

EC50 (U937 cells [2]; [6]): 106 µM
Structure (SMILES): CO[C@H]1O[C@@H]2O[C@@]3(C)CC[C@H]4[C@H](C)CC[C@@H]([C@H]1C)[C@@]24OO3 [Artemether, artemether]

Structure (SMILES): C[C@H]1COC2=C1C(=O)C(=O)c1c2ccc2c1CCCC2(C)C [Cryptotanshinone, cryptotanshinone]
EC50 (U937 cells [2]; [7]): 53.5 µM
EC50 ([3]; Homo sapiens, PBMC, read-out: EC50 for decreased PBMC viability): ~12 µM

Structure (SMILES): CC[C@@]1(O)C(=O)OCc2c1cc1n(c2=O)Cc2cc3c(CN(C)C)c(O)ccc3nc2-1 [topotecan]
Hit status in preliminary screen for cAMP efflux inhibitors (U937 cells [1]): did not come out as hits

EC50 (U937 cells [2]; [6]): 172 µM
Structure (SMILES): O=C1c2ccc(O)c(O)c2C(=O)c2c(O)ccc(O)c21 [Quinalizarin, quinalizarin]

EC50 (U937 cells [2]; [6]): 99.1 µM
Structure (SMILES): C[C@H]1[C@H](OC(=O)CCC(=O)O)O[C@@H]2O[C@@]3(C)CC[C@H]4[C@H](C)CC[C@@H]1[C@@]24OO3 [Artesunate, artesunate]
Effect on cell cycle (PI staining) (U937 cells [4]): increased percentages of cells in G1 or apoptosis in a dose-dependent manner

EC50 (U937 cells [2]; [6]): 55.7 µM
Structure (SMILES): C[C@H]1[C@@H](O)O[C@@H]2O[C@@]3(C)CC[C@H]4[C@H](C)CC[C@@H]1[C@@]24OO3 [Dihydroartemisinin, dihydroartemisinin]

Structure (SMILES): O=C(O)Cc1ccccc1Nc1c(Cl)cccc1Cl [diclofenac]
Hit status in preliminary screen for cAMP efflux inhibitors (U937 cells [1]): did not come out as hits

Structure (SMILES): O=C1C=C2C(=CCOC2O)O1 (stereo not drawn) [Patulin, patulin]
EC50 (U937 cells [2]; [7]): 3.29 µM
Effect on cell division (CFSE fluorescence) (U937 cells [5]): arrest of cell division within 48 hr

Structure (SMILES): [O-][n+]1ccccc1[S-].[O-][n+]1ccccc1[S-].[Zn+2] [Pyrithione zinc, pyrithione zinc]
Selectivity: concentrations required by leukemic cells versus PBMCs (calculated EC50 values) ([3]; viability EC50, leukemic cell lines vs PBMCs): exception

Structure (SMILES): CC1=NCCc2c1[nH]c1cc(O)ccc21 [Harmalol, harmalol]
EC50 (U937 cells [2]; [6]): 283 µM

EC50 (U937 cells [2]; [6]): 76.6 µM
Structure (SMILES): Oc1c(I)cc(Cl)c2cccnc12 [Clioquinol, clioquinol]
